Calls of active or inactive are those of the source.
Legend:
[1] = Counterscreen for antagonists of the human trace amine associated receptor 1 (hTAAR1): Fluorescence-based cell-based high throughput dose response assay to identify nonselective Ga16 antagonists.; assay type: functional
[2] = Counterscreen for […] of the human trace amine associated receptor 1 (TAAR1): Fluorescence-based cell-based high throughput dose response assay to identify nonselective Ga16 agonists.; assay type: functional
[3] = HEK293T cell cytotoxicity, dose response, cytotoxicity control for HIV Vif inhibitor project, cherry-picks (AID 652208); assay type: functional, cell-based
Vero = assay: Vero cell toxicity, dose response, cytotoxicity control, plate reader, cherry-pick samples (AID 687020); assay type: functional, cell-based; conditions: Chlorocebus sabaeus
[4] = HEK293T cytotoxicity, dose response, cytotoxicity control for miR-122 modulator project, cell-based, inhibitor set, cherry-pick, set 2 (AID 720697); assay type: functional
cells [5] = assay type: functional, cell-based
[6] = target: Photoreceptor-specific nuclear receptor (Homo sapiens, UniProt Q9Y5X4); assay type: functional, cell-based;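 further: CHO-S cells with Gal4-NCOR and VP16-NR2E3 two-hybrid luciferase reporter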
[7] = target: Nuclear receptor subfamily 0 group B member 1 (Homo sapiens, UniProt P51843); assay type: functional, cell-based;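 further: HEK293T cells transfected with SF-1 and DAX-1 plus StAR promoter luciferase reporter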
cells [8] = assay: cells
[9] = target: T1, Oxysterols receptor LXR-beta (Homo sapiens, UniProt P55055); assay type: functional, cell-based;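 further: Cell-based luminescence dose-response assay of agonist activity at LXR, run as a confirmatory counterscreen to a daf-12 agonist screen; HEK293 cells with Gal4-LXR fusion and GAL4-driven luciferase reporter; agonist potency from rising luciferase signal of a Gal4-LXR reporter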
T1 sequence (P55055 whole entry): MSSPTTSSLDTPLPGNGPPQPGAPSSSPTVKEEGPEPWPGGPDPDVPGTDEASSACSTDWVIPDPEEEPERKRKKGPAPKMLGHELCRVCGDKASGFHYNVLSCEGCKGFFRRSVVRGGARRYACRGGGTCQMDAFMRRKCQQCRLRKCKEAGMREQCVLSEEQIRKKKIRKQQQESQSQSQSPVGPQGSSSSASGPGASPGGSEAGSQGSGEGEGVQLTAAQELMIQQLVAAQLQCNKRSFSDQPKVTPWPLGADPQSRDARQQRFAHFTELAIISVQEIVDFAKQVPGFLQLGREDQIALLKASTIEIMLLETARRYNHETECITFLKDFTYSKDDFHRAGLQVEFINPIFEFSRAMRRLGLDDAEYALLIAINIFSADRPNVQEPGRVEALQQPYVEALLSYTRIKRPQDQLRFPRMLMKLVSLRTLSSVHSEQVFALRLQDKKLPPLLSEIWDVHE

Cryptococcus neoformans = assay: PubChem AID 686997; assay type: functional, organism-based
ORF 73 = ORF 73 (Human herpesvirus 8, UniProt O40947); assay: inhibitors of C-LANA binding to LBS DNA, dose response, biochemical, fluorescence polarization, cherry-picked samples (AID 504725); set-up: species or system Human gammaherpesvirus 8;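 further: fluorescence polarization of a labeled DNA duplex reporting LANA DNA binding; potency is for inhibitors that block LANA binding to the DNA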
[10] = target: T2, Voltage-gated N-type calcium channel alpha-1B subunit/Amyloid beta A4 precursor protein-binding family A member 1 (Homo sapiens, UniProt Q00975+Q02410); assay type: protein assay
Beta-lactamase [11] = target: Beta-lactamase (Pseudomonas aeruginosa, UniProt Q79MP6);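 further: biochemical dose-response test of metallo-beta-lactamase enzyme inhibition, read out by epi-absorbance; purified recombinant IMP-1 metallo-beta-lactamase with nitrocefin as substrate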
Beta-lactamase [12] = target: Beta-lactamase (Salmonella choleraesuis (strain SC-B67), UniProt Q5J463)
Insulin-degrading enzyme [13] = target: T3, Insulin-degrading enzyme (Homo sapiens, UniProt P14735); assay: activators of recombinant IDE enzyme, dose response, counter-screen for IDE activator project, biochemical, fluorescence polarization (AID 588681)
T3 sequence (P14735 whole entry): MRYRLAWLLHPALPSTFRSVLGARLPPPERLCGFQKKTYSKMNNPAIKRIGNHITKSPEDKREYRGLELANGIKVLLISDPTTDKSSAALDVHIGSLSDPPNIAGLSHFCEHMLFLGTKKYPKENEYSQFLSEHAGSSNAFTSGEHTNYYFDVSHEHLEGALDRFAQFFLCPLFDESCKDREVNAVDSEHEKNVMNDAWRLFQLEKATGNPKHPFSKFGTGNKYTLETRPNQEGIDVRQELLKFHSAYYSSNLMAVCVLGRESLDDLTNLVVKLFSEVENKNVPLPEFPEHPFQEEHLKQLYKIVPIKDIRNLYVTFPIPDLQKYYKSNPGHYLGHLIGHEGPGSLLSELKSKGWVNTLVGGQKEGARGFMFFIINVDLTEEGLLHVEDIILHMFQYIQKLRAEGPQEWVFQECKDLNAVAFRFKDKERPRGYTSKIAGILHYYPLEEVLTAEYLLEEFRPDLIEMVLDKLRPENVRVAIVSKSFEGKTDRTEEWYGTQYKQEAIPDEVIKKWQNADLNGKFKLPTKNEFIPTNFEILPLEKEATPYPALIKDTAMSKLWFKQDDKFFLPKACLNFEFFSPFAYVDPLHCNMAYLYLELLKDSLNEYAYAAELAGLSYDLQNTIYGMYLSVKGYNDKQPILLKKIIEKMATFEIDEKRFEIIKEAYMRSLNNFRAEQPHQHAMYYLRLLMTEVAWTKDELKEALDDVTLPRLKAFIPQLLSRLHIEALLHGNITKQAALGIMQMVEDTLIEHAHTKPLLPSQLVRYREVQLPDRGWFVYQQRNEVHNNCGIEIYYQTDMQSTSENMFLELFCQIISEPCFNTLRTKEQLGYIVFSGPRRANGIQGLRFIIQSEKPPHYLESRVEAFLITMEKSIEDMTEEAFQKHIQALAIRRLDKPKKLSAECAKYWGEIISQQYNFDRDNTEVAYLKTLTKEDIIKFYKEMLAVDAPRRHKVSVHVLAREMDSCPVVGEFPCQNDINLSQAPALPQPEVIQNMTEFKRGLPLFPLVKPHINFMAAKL

Keap1/Nrf2 = Keap1/Nrf2 (Homo sapiens, UniProt Q14145); assay: Keap1-Nrf2 protein-protein interaction inhibitors, dose response, biochemical, fluorescence polarization, cherry-picked samples (AID 588683)
[14] = target: T2, Voltage-gated N-type calcium channel alpha-1B subunit/Amyloid beta A4 precursor protein-binding family A member 1; assay type: protein assay; remark: listed apart in the source
HEK293 [15] = assay: HEK cell cytotoxicity by LDH release, dose response, cytotoxicity control for IDE activator project, fluorescence, HEK cells (AID 588440); assay type: functional, cell-based; conditions: Homo sapiens;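 further: cytotoxicity by LDH release measuring loss of membrane integrity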
Insulin-degrading enzyme [16] = target: T3, Insulin-degrading enzyme; assay: activators of endogenous IDE in HEK cells, dose response, cell-based, fluorescence polarization (AID 588439); assay type: functional
HEK293 [17] = assay: optical interference in Abeta FP readout, dose response, artefact control for IDE activator project, biochemical, fluorescence polarization (AID 588442); assay type: functional, cell-based; conditions: Homo sapiens
[18] = target: Long-chain-fatty-acid--AMP ligase FadD28 (Mycobacterium tuberculosis, UniProt P9WQ59); assay: Fluorescence polarization aasay to screen for inhibitors that compete for the binding of FadD28 to a bisubstrate Measured in Biochemical System Using Plate Reader - 2147-01_Inhibitor_Dose_CherryPick_Activity.; assay type: functional, Mycobacterium tuberculosis H37Rv
[19] = target: 5-hydroxytryptamine receptor 2A (Mus musculus, UniProt P35363); assay type: functional, cell-based;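 further: CHO-K1 cells with tagged receptor and beta-arrestin; agonist potency measured as compound-induced activation of the receptor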
Mu-type opioid receptor = Mu-type opioid receptor (Homo sapiens, UniProt P35372); assay type: functional, cell-based;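 further: U2OS cells with beta-arrestin recruitment to OPRM1 by beta-gal complementation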
[20] = target: Potassium channel subfamily K member 9 (Homo sapiens, UniProt Q9NPC2); assay: TASK3 (KCNK9) channel inhibitors, thallium flux, SAR follow-up, selectivity assay for TASK1 inhibitor project, cell-based, FluxOR thallium flux, concentration-response (AID 652211); assay type: functional;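 further: potency is for inhibitors of the channel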
P388 = assay: cells; assay type: functional; conditions: Mus musculus
BJ = assay: cytotoxicity toward Ras-transformed BJeLR fibroblasts, dose response, cell-based, alamar blue fluorescence, cherrypicked samples (AID 2631); assay type: functional; conditions: Homo sapiens;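 further: confirmatory dose-response assay in RAS-dependent BJ fibroblasts engineered with TERT, LT and ST, with cytotoxicity read by fluorescence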
[21] = ZM109 Env clade C HIV-1 fusion inhibitors, dose response, HeLa effector, CEM target cells, luciferase, cherry-pick (AID 652058); assay type: functional, cell-based
[22] = inhibitors of HIV Env-driven cell fusion, dose response, cherry-pick (AID 652057); assay type: functional, cell-based
[23] = CEM21 lymphoblast cell cytotoxicity, dose response, cytotoxicity control for viral fusion inhibitor project, CellTiter-Glo luminescence, cherry-picked (AID 652042); assay type: functional, cell-based;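 further: potency for signal decrease meaning cytotoxicity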
[24] = inhibitors of clade B AD8 Env fusion, dose response, cell-based, cherry-pick (AID 652062); assay type: functional;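 further: luciferase signal from cell-cell fusion driven by HIV-1 clade B AD8 Env; potency is for inhibitors of fusion seen as a drop in luminescence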
[25] = off-target signal loss in HeLa-CEM21 co-culture – HeLa F-luc CTL cells, cherry-picked, counter-screen for HIV-1 Env fusion inhibitor project, dose response (AID 652040); assay type: functional, cell-based;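 further: potency for signal decrease marking cytotoxic or nonspecific inhibition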
cells [26] = assay type: functional, cell-based; remark: listed apart in the source
Paired box protein Pax-8 = Paired box protein Pax-8 (Homo sapiens, UniProt Q06710); assay: inhibitors of PAX8-driven TPO luciferase reporter, dose response, RMG-I cells, cherry-pick (AID 687027); assay type: functional, cell-based;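 further: luciferase reporter driven by Pax8 target thyroperoxidase promoter measured by SteadyGlo luminescence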
SN12K1 = assay: cells; assay type: functional; conditions: Homo sapiens
INS1 = assay: beta cell apoptosis inhibitors, cytokine rescue, dose response, luminescence, retest (AID 449756); assay type: functional, cell-based; conditions: Rattus norvegicus;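 further: cell death triggered by IL-1 beta plus TNF-alpha plus IFN-gamma mixture; protective hits raise ATP signal compared with cytokine alone wells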
[27] = target: T4, Heat shock factor protein 1 (Mus musculus, UniProt P38532); assay: HSF1 potentiators in luciferase reporter cells, confirmation, cell-based, NIH3T3, luminescence, dose retest (AID 435004); assay type: functional;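 further: stress induced by proteasome inhibitor MG132 added 30 min after compound; luciferase reporter driven by HSF1 response element in NIH3T3 cells; actives raise luminescence as potentiators of the MG132 stress response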
T4 sequence (P38532 whole entry): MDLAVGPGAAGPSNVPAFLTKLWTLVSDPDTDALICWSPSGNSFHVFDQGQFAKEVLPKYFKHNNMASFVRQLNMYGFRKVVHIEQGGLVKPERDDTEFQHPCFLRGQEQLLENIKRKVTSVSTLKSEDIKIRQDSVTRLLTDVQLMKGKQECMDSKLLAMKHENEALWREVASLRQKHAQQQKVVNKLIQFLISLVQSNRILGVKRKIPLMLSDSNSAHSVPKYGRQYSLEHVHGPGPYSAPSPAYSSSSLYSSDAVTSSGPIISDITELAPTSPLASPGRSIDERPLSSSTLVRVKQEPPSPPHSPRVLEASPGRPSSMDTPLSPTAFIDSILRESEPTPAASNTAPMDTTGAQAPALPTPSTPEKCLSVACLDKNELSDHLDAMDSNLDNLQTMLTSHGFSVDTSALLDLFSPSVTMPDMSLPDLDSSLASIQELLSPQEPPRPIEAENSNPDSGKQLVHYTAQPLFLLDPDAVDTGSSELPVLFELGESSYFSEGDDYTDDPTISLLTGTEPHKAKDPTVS

cells [28] = assay type: functional, cell-based; remark: listed apart in the source
[29] = cytotoxicity in HEK-293T cells, dose response, cytotoxicity control for TCR NF-kB inhibitor project, luminescence, T-cell screen hits (AID 489026); assay type: functional, cell-based;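 further: cells exposed to compound about 14 hours before the viability readout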
P388/ADR = assay: cells; assay type: functional; conditions: Mus musculus

Photoreceptor-specific nuclear receptor, sequence (Q9Y5X4 whole entry, the tested form may be a part): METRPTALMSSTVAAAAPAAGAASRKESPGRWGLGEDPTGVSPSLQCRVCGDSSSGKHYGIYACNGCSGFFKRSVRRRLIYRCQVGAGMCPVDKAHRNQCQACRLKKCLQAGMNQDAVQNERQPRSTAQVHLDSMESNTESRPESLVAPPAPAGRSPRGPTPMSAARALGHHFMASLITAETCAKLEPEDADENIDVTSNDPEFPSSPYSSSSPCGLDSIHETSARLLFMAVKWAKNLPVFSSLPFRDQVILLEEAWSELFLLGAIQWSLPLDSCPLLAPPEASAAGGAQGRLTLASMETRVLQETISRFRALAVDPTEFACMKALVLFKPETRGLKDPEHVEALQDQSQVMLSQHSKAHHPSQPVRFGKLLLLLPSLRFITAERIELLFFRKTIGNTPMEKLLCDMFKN
T2 sequence (Q00975 whole entry): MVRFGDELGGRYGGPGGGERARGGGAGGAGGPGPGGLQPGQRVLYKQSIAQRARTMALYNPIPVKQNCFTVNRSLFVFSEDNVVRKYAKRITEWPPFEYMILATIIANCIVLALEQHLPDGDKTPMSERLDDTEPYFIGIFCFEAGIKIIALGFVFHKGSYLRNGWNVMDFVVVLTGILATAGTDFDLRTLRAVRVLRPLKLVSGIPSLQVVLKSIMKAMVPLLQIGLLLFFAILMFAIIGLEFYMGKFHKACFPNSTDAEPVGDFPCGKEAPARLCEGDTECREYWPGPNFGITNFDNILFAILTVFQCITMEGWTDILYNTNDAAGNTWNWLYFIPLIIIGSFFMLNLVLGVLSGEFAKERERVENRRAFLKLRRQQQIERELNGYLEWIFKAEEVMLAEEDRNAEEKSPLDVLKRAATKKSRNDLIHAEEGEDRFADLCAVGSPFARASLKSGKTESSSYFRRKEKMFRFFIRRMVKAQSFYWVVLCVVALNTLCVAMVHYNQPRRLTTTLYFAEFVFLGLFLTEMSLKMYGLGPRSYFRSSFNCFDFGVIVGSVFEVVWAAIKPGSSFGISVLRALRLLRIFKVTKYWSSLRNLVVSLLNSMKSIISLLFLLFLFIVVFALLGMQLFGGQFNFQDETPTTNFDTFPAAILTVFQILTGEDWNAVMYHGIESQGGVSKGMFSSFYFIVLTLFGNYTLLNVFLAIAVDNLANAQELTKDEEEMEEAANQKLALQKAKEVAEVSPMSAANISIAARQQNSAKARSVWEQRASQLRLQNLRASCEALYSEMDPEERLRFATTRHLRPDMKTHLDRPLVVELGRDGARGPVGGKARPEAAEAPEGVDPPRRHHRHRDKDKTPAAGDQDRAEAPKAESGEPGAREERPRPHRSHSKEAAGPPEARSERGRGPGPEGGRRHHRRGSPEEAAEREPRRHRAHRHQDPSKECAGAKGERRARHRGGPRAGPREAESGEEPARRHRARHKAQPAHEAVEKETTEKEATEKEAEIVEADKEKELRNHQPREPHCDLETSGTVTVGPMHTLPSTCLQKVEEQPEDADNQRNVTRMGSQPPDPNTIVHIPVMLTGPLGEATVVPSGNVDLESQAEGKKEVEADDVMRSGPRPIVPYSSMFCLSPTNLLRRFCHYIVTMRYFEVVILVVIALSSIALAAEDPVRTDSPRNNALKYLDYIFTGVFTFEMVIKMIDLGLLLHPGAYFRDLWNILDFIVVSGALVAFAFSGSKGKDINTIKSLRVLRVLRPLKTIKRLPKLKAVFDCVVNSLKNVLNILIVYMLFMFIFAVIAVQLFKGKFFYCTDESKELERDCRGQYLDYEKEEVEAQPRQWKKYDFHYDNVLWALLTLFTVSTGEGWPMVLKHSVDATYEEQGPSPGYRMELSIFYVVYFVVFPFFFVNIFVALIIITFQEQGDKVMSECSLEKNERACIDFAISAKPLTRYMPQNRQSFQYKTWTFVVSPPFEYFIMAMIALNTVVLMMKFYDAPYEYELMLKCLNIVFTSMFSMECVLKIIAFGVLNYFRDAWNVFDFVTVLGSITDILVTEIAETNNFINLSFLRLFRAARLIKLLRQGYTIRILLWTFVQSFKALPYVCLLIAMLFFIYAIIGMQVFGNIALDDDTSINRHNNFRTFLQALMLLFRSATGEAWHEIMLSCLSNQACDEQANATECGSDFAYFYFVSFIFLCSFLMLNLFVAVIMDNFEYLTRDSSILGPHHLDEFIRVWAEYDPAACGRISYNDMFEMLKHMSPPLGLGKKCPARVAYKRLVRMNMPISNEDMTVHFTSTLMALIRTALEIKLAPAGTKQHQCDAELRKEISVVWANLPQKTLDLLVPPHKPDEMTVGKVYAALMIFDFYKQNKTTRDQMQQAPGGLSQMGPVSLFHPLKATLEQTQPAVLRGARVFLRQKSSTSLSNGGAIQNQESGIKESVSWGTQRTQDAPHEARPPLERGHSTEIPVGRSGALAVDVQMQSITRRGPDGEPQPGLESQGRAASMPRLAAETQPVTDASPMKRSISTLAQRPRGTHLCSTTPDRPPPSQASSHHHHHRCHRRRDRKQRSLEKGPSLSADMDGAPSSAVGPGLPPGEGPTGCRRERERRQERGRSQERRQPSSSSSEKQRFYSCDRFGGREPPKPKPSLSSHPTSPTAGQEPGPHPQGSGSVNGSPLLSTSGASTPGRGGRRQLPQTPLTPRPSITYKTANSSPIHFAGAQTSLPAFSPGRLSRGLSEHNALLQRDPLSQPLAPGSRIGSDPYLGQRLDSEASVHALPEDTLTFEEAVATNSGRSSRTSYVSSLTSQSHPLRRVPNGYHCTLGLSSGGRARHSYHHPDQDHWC
T2 sequence (Q02410 whole entry): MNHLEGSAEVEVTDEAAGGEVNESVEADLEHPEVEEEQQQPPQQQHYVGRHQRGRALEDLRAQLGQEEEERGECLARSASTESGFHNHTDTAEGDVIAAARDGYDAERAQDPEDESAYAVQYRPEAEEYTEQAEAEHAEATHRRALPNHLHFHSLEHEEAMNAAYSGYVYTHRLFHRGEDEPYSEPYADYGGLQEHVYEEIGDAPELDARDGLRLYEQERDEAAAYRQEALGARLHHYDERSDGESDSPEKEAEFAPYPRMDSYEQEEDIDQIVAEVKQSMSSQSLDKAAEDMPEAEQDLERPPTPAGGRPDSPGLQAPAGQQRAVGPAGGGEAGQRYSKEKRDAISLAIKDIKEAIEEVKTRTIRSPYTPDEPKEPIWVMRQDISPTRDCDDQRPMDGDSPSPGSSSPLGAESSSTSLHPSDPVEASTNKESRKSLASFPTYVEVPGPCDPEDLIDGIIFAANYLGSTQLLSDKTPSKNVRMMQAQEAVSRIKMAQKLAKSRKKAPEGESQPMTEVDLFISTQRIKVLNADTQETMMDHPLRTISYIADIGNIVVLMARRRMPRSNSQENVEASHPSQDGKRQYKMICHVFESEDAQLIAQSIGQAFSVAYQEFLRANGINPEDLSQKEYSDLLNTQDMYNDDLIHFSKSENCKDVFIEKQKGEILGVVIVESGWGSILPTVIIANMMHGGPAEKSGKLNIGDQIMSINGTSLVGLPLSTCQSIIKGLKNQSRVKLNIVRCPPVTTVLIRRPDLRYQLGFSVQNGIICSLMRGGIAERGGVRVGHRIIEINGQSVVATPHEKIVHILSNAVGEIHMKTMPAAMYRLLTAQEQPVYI
Long-chain-fatty-acid--AMP ligase FadD28, sequence (P9WQ59 whole entry): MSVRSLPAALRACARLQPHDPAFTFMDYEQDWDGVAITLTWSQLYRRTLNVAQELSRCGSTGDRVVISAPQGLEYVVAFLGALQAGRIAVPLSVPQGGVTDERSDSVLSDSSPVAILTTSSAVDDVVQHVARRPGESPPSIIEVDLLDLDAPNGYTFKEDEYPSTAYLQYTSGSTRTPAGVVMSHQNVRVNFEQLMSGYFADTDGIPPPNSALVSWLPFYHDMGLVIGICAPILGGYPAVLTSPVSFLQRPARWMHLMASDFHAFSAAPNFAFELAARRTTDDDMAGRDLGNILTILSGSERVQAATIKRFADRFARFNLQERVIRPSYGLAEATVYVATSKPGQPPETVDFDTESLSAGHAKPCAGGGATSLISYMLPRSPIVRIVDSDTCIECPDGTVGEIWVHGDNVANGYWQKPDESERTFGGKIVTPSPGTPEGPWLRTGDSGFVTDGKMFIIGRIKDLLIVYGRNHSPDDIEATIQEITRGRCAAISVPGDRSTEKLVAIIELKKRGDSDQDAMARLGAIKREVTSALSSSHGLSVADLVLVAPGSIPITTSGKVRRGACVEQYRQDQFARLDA
Paired box protein Pax-8, sequence (Q06710 whole entry): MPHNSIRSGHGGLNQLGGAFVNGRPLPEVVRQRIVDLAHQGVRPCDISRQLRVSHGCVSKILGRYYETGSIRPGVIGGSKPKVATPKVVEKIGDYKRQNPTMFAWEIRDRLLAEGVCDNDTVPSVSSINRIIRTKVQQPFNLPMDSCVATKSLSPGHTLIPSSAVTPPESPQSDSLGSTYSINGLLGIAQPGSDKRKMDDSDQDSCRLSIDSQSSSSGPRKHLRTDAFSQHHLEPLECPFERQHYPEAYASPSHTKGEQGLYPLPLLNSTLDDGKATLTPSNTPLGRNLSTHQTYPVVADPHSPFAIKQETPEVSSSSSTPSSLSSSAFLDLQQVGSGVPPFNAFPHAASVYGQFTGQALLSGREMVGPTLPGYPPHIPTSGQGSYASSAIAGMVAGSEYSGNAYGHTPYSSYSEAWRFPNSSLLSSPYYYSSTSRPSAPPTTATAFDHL
Potassium channel subfamily K member 9, sequence (Q9NPC2 whole entry): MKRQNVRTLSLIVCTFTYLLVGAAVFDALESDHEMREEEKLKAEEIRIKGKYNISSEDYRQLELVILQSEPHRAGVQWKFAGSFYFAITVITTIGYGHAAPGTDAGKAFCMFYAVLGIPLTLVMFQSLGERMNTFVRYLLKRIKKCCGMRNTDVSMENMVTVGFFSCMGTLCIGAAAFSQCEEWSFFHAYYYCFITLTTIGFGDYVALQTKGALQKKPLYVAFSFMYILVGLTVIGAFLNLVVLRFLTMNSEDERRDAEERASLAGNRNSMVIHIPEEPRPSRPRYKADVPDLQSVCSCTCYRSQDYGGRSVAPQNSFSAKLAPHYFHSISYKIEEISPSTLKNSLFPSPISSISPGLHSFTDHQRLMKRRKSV

In the case of `Cc1nn(Cc2c(F)c(F)c(F)c(F)c2F)c(C)c1NC(=O)c1ccc(COc2ccccc2Cl)cc1`, the IC50 [1] is reported as > 29.9 µM (inactive) and the EC50 [2] is reported as > 29.9 µM (inactive).
With `Cc1cc2cc(C#N)c(SCC(=O)Nc3nonc3C)nc2cc1C` the AC50 [3] was 34.9 µM (active).
In the case of `O=C(COc1ccccc1)Nc1ccc(N2CCN(C(=O)c3cccs3)CC2)cc1`, the AC50 (Vero) is reported as 35.4 µM (active).
For `O=C(c1ccco1)c1cn(Cc2ccccc2Cl)c2ccccc12`, the AC50 [4] was 9.08 µM (active).
For `Cc1ccnc(NC(=O)Cc2ccc(-c3ccccc3)cc2)c1`, the IC50 (cells [5]) was > 67.5 µM (inactive), the IC50 [6] was 0.741 µM (active) and the IC50 [7] was > 67.5 µM (inactive). For the same compound, the EC50 (cells [8]) was > 67.5 µM (inactive) and the EC50 [9] was > 67.5 µM (inactive).
In the case of `COCCN1C(=S)N[C@@H](c2ccccc2)C(C(=O)OC)=C1C`, the AC50 (Cryptococcus neoformans) is reported as > 84 µM (inactive).
With `O=C1c2cccc3c(O)ccc(c23)C(=O)N1Cc1ccco1` the AC50 (ORF 73) was 0.966 µM (active), the IC50 [10] was 9.17 µM (active) and the IC50 (Beta-lactamase [11]) was 14.1 µM (inactive). For the same compound, the IC50 (Beta-lactamase [12]) was 7.5 µM (active), the EC50 (Insulin-degrading enzyme [13]) was > 54.7 µM (inactive) and the AC50 (Keap1/Nrf2) was 1.5 µM (active). The IC50 [14] was > 50 µM (inactive), the IC50 (HEK293 [15]) was > 89.3 µM (inactive) and the EC50 (Insulin-degrading enzyme [16]) was > 54.7 µM (inactive). The EC50 (HEK293 [17]) was > 54.7 µM (inactive).
With `Cc1cccc(NC(=O)Cn2c(=O)oc3ccccc32)n1` the AC50 [18] was 27.9 µM (active).
In the case of `CN1C[C@H](CO)C[C@@H]2c3cccc4[nH]cc(c34)C[C@H]21`, the EC50 [19] is reported as 0.0819 µM (active) and the EC50 (Mu-type opioid receptor) is reported as 92.5 µM (inactive).
For `CCOc1ccccc1C(=O)Nc1cccc(NC(=O)c2ccccc2OC)c1`, the IC50 [20] was 1.98 µM (active).
For `CC[C@@]1(O)C(=O)OCc2c1cc1n(c2=O)Cc2cc3c(N)cccc3nc2-1` [9-AMINOCAMPTOTHECIN], the IC50 [6] was 0.896 µM (active), the GI50 (P388) was < 0.0119 µM (active) and the EC50 (BJ) was 0.00718 µM (active). The AC50 [21] was 0.463 µM (active), the AC50 [22] was < 0.26 µM (active) and the AC50 [23] was 2.47 µM (active). The AC50 [24] was 0.348 µM (active), the AC50 [25] was < 0.26 µM (active) and the EC50 (cells [26]) was > 350 µM (not active). The AC50 (Paired box protein Pax-8) was < 0.26 µM (active), the GI50 (SN12K1) was < 0.0227 µM (active) and the AC50 (INS1) was 2.13 µM (active). The EC50 [27] was > 260 µM (inconclusive), the EC50 (cells [28]) was > 350 µM (not active) and the IC50 [29] was > 80 µM (inactive). The GI50 (P388/ADR) was < 0.0174 µM (active).

Reference: ChEMBL document CHEMBL1201862, “PubChem BioAssay data set” (2004)
